From PMC8187206 (Pharmacological Reports, 2020)

What was measured:
[1] = test system: patients; conditions: multiple administration of the TKI; cited from earlier work
[2] = Effect of a single sorafenib dose on blood glucose level (glycaemia); type: in vivo, Wistar-strain rats; conditions: control group (healthy rats), single oral sorafenib 100 mg/kg
Experimental: (§1) DG rats were fed a high-fat diet (Labofeed B, 60% fat; Morawski, Poland) for a period of 4 weeks to induce insulin resistance. After 2 weeks of dietary manipulation the animals were intraperitoneally injected with STZ (35 mg/kg body weight in 1000 μL of sterile citrate buffer, pH 4.2). Citrate buffer was injected as a vehicle in HG. The high-fat diet was continued for subsequent 2 weeks in the DG. The rats in the HG were fed with standard diet (Labofeed B, 8% fat) and water ad libitum. The rats with the blood glucose level ≥ 250 mg/dL were considered diabetic and qualified for this study. The percentage reduction of the glucose levels in the rats was calculated using the following formula: %Reductionglucose=(V0-Vt)·100/V0, where V0 glucose concentration at baseline and Vt glucose concentration at the time of maximum reduction.
(§2) After injecting streptozotocin 10% glucose solution was additionally administered for 24 h to prevent hypoglycaemia. […] The drug was dissolved in 1 mL 10% DMSO and administered orally by means of a gastric feeding tube. 0.1 mL blood samples were collected from rats by cutting a piece of their tails. The samples were collected at the following time points: 0, 0.5, 1, 1.5, 2, 3, 4, 5, 6, 7, 8, 10, 12, 24, 30, 48, 72, 96 h. Each time on blood collection glycaemia was measured.

[3] = test system: streptozotocin-induced diabetic rats; test: as above; type: in vivo, Wistar-strain rats; conditions: DG group (diabetic rats), single oral sorafenib 100 mg/kg
Experimental: as §1, §2

[4] = Plasma pharmacokinetics of sorafenib and sorafenib N-oxide after single oral sorafenib in diabetic and healthy rats (HPLC-UV, non-compartmental analysis); type: in vivo, Wistar-strain rats; conditions: single oral sorafenib 100 mg/kg
Experimental: The experimental protocol for this study was reviewed and approved by the Local Ethics Committee. All procedures were performed in accordance with European Union regulations concerning the handling and use of laboratory animals. The study was conducted following the principles of the 3Rs (Replacement, Reduction and Refinement). Adult male Wistar-strain rats (weight 400–445 g) were used in the study. The animals were maintained under standard breeding conditions with a 12 h light–12 h dark cycle at constant room temperature (23 ± 2 °C), relative humidity (55 ± 10%) and given ad libitum access to feed and water. After acclimatisation the rats were randomly assigned into two groups: the diabetic group (DG) (n = 8) and the healthy group (HG) (n = 8).
as §1, §2
The validation was performed according to the guidelines of the European Medicines Agency (EMA) concerning validation of bioanalytical methods. Chromatographic analysis was conducted on a Alliance® system with 2695 Separation Module and a Dual Lambda (λ) absorbance detector (Waters Corporation®, USA). Data acquisition was performed using Empower software v. 1154. Separation was carried out on Symmetry® C8 column (250 mm × 4.6 mm, 5.0 µm particle size, Waters Corporation®, USA). The column temperature was maintained at 25 °C. The mobile phase consisted of ammonium acetate 0.1 M pH = 3.4 (adjusted with glacial acetic acid) (solvent A) and acetonitrile (solvent B). The following gradient was used: the percentage A was decreased from 60 to 29%, while at the same time over 21 min percentage B increased linearly from 40 to 71%. The UV detection wavelength was set at 265 nm, and the injection volume was 20 µL. The volume of the analyzed rat plasma was 25 µL. The samples were determined using liquid–liquid extraction.
The maximum plasma concentration (Cmax) and the time to reach the maximum plasma concentration (tmax) were obtained directly from the concentration—time data. The elimination rate constant (kel) was estimated from the slope of the terminal linear segment of the log mean concentration-time plot using the automatic best-fitting option in WinNonlin 8.1. The elimination half-life (t1/2kel) was calculated from ln2/kel. The area under the concentration-time curve from zero to the time of the last concentration measured (AUC0−t) was calculated by a linear trapezoidal rule and the residual area under the curve (AUCres) was estimated by extrapolation from the last concentration measured (Clast) to infinity using Clast/kel ratio. The area under curve from zero to infinity (AUC0−∞) was computed as a sum of AUC0−t and AUCres.

[5] = diabetic animals (streptozotocin-induced for sunitinib and lapatinib, alloxan-induced rabbits for erlotinib); cited from earlier work
[6] = cited from earlier work
[7] = increase in diabetic versus healthy rats

SMILES | AUC0−t higher in the DG when compared to the HG [4, 7] [%] | AUC0−∞ higher in the DG when compared to the HG [4, 7] [%] | Cmax higher in the DG when compared to the HG [4, 7] [%] | Cmax in diabetic animals [5] | total exposure in diabetic animals [5] | further results
CNC(=O)c1cc(Oc2ccc(NC(=O)Nc3ccc(Cl)c(C(F)(F)F)c3)cc2)ccn1 [Sorafenib] | 66.4 | 56.0 | 88.7 | – | – | effect on blood glucose after multiple administration [1]: hypoglycaemic effect; glucose levels [2]: did not decrease; time of maximum reduction of glycaemia after the sorafenib administration [3]: 1.5 to 11 h; maximum reduction of glycaemia ([3]; (V0-Vt)·100/V0): 11.2–50.8%; Cl/F decreased in diabetic animals ([4]; decrease in diabetic versus healthy rats): 40%
C#Cc1cccc(Nc2ncnc3cc(OCCOC)c(OCCOC)cc23)c1 [erlotinib] | – | – | – | significantly increased | significantly increased | –
CS(=O)(=O)CCNCc1ccc(-c2ccc3ncnc(Nc4ccc(OCc5cccc(F)c5)c(Cl)c4)c3c2)o1 [lapatinib] | – | – | – | significantly increased | significantly increased | –
CNC(=O)c1cc(Oc2ccc(NC(=O)Nc3ccc(Cl)c(C(F)(F)F)c3)cc2)cc[n+]1[O-] [Sorafenib N-oxide, sorafenib N-oxide] | 112.55 | 91.87 | 119.57 | – | – | share of circulating substances at steady state [6]: 9–16%; AUMC0-t increase in the DG [4, 7]: 134.31%; AUMC0-∞ increase in the DG [4, 7]: 85.33%
CCN(CC)CCNC(=O)c1c(C)[nH]c(/C=C2\C(=O)Nc3ccc(F)cc32)c1C [sunitinib] | – | – | – | significantly increased | significantly increased | –
